# Measured values reported in the supplement of paper PMC10627819.
# Key:
# Settings in all cases: main component drawn
# B. subtilis 168 [1] = assay: fitness (endpoint OD595 vs no drug) (fraction); higher = more growth
# Summary of the method: (§1)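 Bacterial growth was followed in 384-well plates seeded at OD595 0.01, with 30 µl per well, or 55 µl for S. pneumoniae, in TSB, LB Lennox or CY at 37 °C. OD595 was read every 30 min for 14 h, and each reading had the first reading subtracted as background. Fitness is the background-corrected optical density at entry into stationary phase divided by the robust mean of the no-drug control wells. This ratio is capped at 1.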
# S. aureus Newman [2] = assay: as above
# Summary of the method: as §1
# B. subtilis 168 [3] = assay: Bliss interaction score (quartile over a dose matrix) (fitness difference); higher = more antagonism (negative = synergy)
# Summary of the method: (§2)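 At entry into stationary phase, OD595 was recorded and divided by the robust mean of the no-drug wells on that plate, with any value above 1 set to 1. This gives the fitness measure used throughout. Single-drug fitness was inferred from combination data, and the Bliss score, observed minus product-expected fitness, is shown as quartiles across technical, biological and donor/recipient replicates.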
# S. aureus DSM 20231 = assay: as above
# Summary of the method: as §2
# S. aureus Newman [4] = assay: as above
# Summary of the method: as §2
# S. pneumoniae D39V = assay: as above
# Summary of the method: as §2
# [5] = first compound 37.5 µg/mL, partner 2 µg/mL
# [6] = first compound 37.5 µg/mL, partner 4 µg/mL
# [7] = first compound 37.5 µg/mL, partner 8 µg/mL
# [8] = first compound 75 µg/mL, partner 2 µg/mL
# [9] = first compound 75 µg/mL, partner 4 µg/mL
# [10] = first compound 75 µg/mL, partner 8 µg/mL
# [11] = first compound 18.75 µg/mL, partner 4 µg/mL
# [12] = first compound 37.5 µg/mL, partner 1 µg/mL
# [13] = first compound 75 µg/mL, partner 1 µg/mL
# 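For Bliss interaction score (quartile over a dose matrix) in this document: first quartile when negative (synergy) and third quartile when positive (antagonism).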
smiles,measurement,setting,value
CC[C@H](C)[C@H](N)C1=N[C@H](C(=O)N[C@@H](CC(C)C)C(=O)N[C@H](CCC(=O)O)C(=O)N[C@H](C(=O)N[C@H]2CCCCNC(=O)[C@H](CC(N)=O)NC(=O)[C@@H](CC(=O)O)NC(=O)[C@H](Cc3cnc[nH]3)NC(=O)[C@@H](Cc3ccccc3)NC(=O)[C@H]([C@@H](C)CC)NC(=O)[C@@H](CCCN)NC2=O)[C@@H](C)CC)CS1 [Bacitracin] + CN[C@@H]1[C@H](O)[C@H](NC)[C@H]2O[C@@]3(O)C(=O)C[C@@H](C)O[C@H]3O[C@@H]2[C@H]1O [Spectinomycin],fitness,B. subtilis 168 [1]; [5],0.903
same,fitness,B. subtilis 168 [1]; [6],0.933
same,fitness,B. subtilis 168 [1]; [7],0.863
same,fitness,B. subtilis 168 [1]; [8],0.889
same,fitness,B. subtilis 168 [1]; [9],0.911
same,fitness,B. subtilis 168 [1]; [10],0.829
same,fitness,S. aureus Newman [2]; [11],0.652
same,fitness,"S. aureus Newman [2]; first compound 18.75 µg/mL, partner 32 µg/mL, one replicate",0.0067
same,fitness,"S. aureus Newman [2]; first compound 18.75 µg/mL, partner 64 µg/mL, one replicate",0.0327
same,fitness,"S. aureus Newman [2]; first compound 37.5 µg/mL, partner 32 µg/mL, one replicate",0.0186
same,fitness,"S. aureus Newman [2]; first compound 37.5 µg/mL, partner 64 µg/mL, one replicate",0.0167
same,fitness,S. aureus Newman [2]; [9],0.0188
same,fitness,S. aureus Newman [2]; [10],0.0181
same,fitness,"S. aureus Newman [2]; first compound 75 µg/mL, partner 16 µg/mL",0
same,fitness,"S. aureus Newman [2]; first compound 75 µg/mL, partner 32 µg/mL, one replicate",0
same,fitness,"S. aureus Newman [2]; first compound 75 µg/mL, partner 64 µg/mL, one replicate",0.003
same,Bliss interaction score,B. subtilis 168 [3],0.0682
same,Bliss interaction score,S. aureus DSM 20231,0.0546
same,Bliss interaction score,S. aureus Newman [4],-0.165
same,Bliss interaction score,S. pneumoniae D39V,-0.186
CC[C@H](C)[C@H](N)C1=N[C@H](C(=O)N[C@@H](CC(C)C)C(=O)N[C@H](CCC(=O)O)C(=O)N[C@H](C(=O)N[C@H]2CCCCNC(=O)[C@H](CC(N)=O)NC(=O)[C@@H](CC(=O)O)NC(=O)[C@H](Cc3cnc[nH]3)NC(=O)[C@@H](Cc3ccccc3)NC(=O)[C@H]([C@@H](C)CC)NC(=O)[C@@H](CCCN)NC2=O)[C@@H](C)CC)CS1 [Bacitracin] + CN[C@@H]1[C@H](O[C@H]2[C@H](O[C@H]3[C@H](O)[C@@H](O)[C@H](N=C(N)N)[C@@H](O)[C@@H]3N=C(N)N)O[C@@H](C)[C@]2(O)C=O)O[C@@H](CO)[C@H](O)[C@H]1O [Streptomycin],fitness,B. subtilis 168 [1]; [5],0.908
same,fitness,B. subtilis 168 [1]; [7],0.0363
same,fitness,B. subtilis 168 [1]; [8],0.807
same,fitness,B. subtilis 168 [1]; [10],0.0188
same,fitness,"B. subtilis 168 [1]; first compound 150 µg/mL, partner 8 µg/mL",0.0134
same,fitness,S. aureus Newman [2]; [11],0.0347
same,fitness,S. aureus Newman [2]; [12],0.0508
same,fitness,S. aureus Newman [2]; [5],0.0177
same,fitness,S. aureus Newman [2]; [6],0.0049
same,fitness,S. aureus Newman [2]; [13],0.0138
same,fitness,S. aureus Newman [2]; [8],0.0112
same,fitness,S. aureus Newman [2]; [9],0.0045
same,Bliss interaction score,B. subtilis 168 [3],-0.234
same,Bliss interaction score,S. aureus DSM 20231,-0.0869
same,Bliss interaction score,S. aureus Newman [4],-0.323
same,Bliss interaction score,S. pneumoniae D39V,-0.146
CC[C@H](C)[C@H](N)C1=N[C@H](C(=O)N[C@@H](CC(C)C)C(=O)N[C@H](CCC(=O)O)C(=O)N[C@H](C(=O)N[C@H]2CCCCNC(=O)[C@H](CC(N)=O)NC(=O)[C@@H](CC(=O)O)NC(=O)[C@H](Cc3cnc[nH]3)NC(=O)[C@@H](Cc3ccccc3)NC(=O)[C@H]([C@@H](C)CC)NC(=O)[C@@H](CCCN)NC2=O)[C@@H](C)CC)CS1 [Bacitracin] + CO/N=C(\C(=O)N[C@@H]1C(=O)N2C(C(=O)O)=C(COC(C)=O)CS[C@H]12)c1csc(N)n1 [Cefotaxime],fitness,"B. subtilis 168 [1]; first compound 37.5 µg/mL, partner 0.00775 µg/mL, one replicate",0.831
same,fitness,"B. subtilis 168 [1]; first compound 37.5 µg/mL, partner 0.0155 µg/mL, one replicate",0.724
same,fitness,"B. subtilis 168 [1]; first compound 37.5 µg/mL, partner 0.031 µg/mL, one replicate",0.52
same,fitness,"B. subtilis 168 [1]; first compound 37.5 µg/mL, partner 0.0625 µg/mL, one replicate",0.479
same,fitness,"B. subtilis 168 [1]; first compound 37.5 µg/mL, partner 0.125 µg/mL, one replicate",0.314
same,fitness,"B. subtilis 168 [1]; first compound 37.5 µg/mL, partner 0.25 µg/mL, one replicate",0.297
same,fitness,"B. subtilis 168 [1]; first compound 37.5 µg/mL, partner 0.5 µg/mL",0.274
same,fitness,B. subtilis 168 [1]; [12],0.137
same,fitness,B. subtilis 168 [1]; [5],0.134
same,fitness,"B. subtilis 168 [1]; first compound 75 µg/mL, partner 0.00775 µg/mL, one replicate",0.749
same,fitness,"B. subtilis 168 [1]; first compound 75 µg/mL, partner 0.0155 µg/mL, one replicate",0.521
same,fitness,"B. subtilis 168 [1]; first compound 75 µg/mL, partner 0.031 µg/mL, one replicate",0.342
same,fitness,"B. subtilis 168 [1]; first compound 75 µg/mL, partner 0.0625 µg/mL, one replicate",0.257
same,fitness,"B. subtilis 168 [1]; first compound 75 µg/mL, partner 0.125 µg/mL, one replicate",0.12
same,fitness,"B. subtilis 168 [1]; first compound 75 µg/mL, partner 0.25 µg/mL, one replicate",0.111
same,fitness,"B. subtilis 168 [1]; first compound 75 µg/mL, partner 0.5 µg/mL",0.202
same,fitness,B. subtilis 168 [1]; [13],0.0939
same,fitness,B. subtilis 168 [1]; [8],0.0639
same,fitness,"B. subtilis 168 [1]; first compound 150 µg/mL, partner 0.00775 µg/mL, one replicate",0.326
same,fitness,"B. subtilis 168 [1]; first compound 150 µg/mL, partner 0.0155 µg/mL, one replicate",0.035
same,fitness,"B. subtilis 168 [1]; first compound 150 µg/mL, partner 0.031 µg/mL, one replicate",0
same,fitness,"B. subtilis 168 [1]; first compound 150 µg/mL, partner 0.0625 µg/mL, one replicate",0.0561
same,fitness,"B. subtilis 168 [1]; first compound 150 µg/mL, partner 0.125 µg/mL, one replicate",0.0401
same,fitness,"B. subtilis 168 [1]; first compound 150 µg/mL, partner 0.25 µg/mL, one replicate",0.0433
same,fitness,"B. subtilis 168 [1]; first compound 150 µg/mL, partner 0.5 µg/mL",0.0854
same,fitness,"B. subtilis 168 [1]; first compound 150 µg/mL, partner 1 µg/mL",0.0162
same,fitness,"B. subtilis 168 [1]; first compound 150 µg/mL, partner 2 µg/mL",0.0303
same,fitness,"S. aureus Newman [2]; first compound 18.75 µg/mL, partner 0.078 µg/mL",0.465
same,fitness,"S. aureus Newman [2]; first compound 18.75 µg/mL, partner 0.156 µg/mL",0.0868
same,fitness,"S. aureus Newman [2]; first compound 18.75 µg/mL, partner 0.312 µg/mL",0.0343
same,fitness,"S. aureus Newman [2]; first compound 18.75 µg/mL, partner 0.625 µg/mL",0.0178
same,fitness,"S. aureus Newman [2]; first compound 18.75 µg/mL, partner 1.25 µg/mL",0.0266
same,fitness,"S. aureus Newman [2]; first compound 18.75 µg/mL, partner 2.5 µg/mL",0.0285
same,fitness,"S. aureus Newman [2]; first compound 37.5 µg/mL, partner 0.078 µg/mL",0.0257
same,fitness,"S. aureus Newman [2]; first compound 37.5 µg/mL, partner 0.156 µg/mL",0.0132
same,fitness,"S. aureus Newman [2]; first compound 37.5 µg/mL, partner 0.312 µg/mL",0.0259
same,fitness,"S. aureus Newman [2]; first compound 37.5 µg/mL, partner 0.625 µg/mL",0.0287
same,fitness,"S. aureus Newman [2]; first compound 37.5 µg/mL, partner 1.25 µg/mL",0.0203
same,fitness,"S. aureus Newman [2]; first compound 37.5 µg/mL, partner 2.5 µg/mL",0.0237
same,fitness,"S. aureus Newman [2]; first compound 75 µg/mL, partner 0.078 µg/mL",0.0416
same,fitness,"S. aureus Newman [2]; first compound 75 µg/mL, partner 0.156 µg/mL",0.031
same,fitness,"S. aureus Newman [2]; first compound 75 µg/mL, partner 0.312 µg/mL",0.0324
same,fitness,"S. aureus Newman [2]; first compound 75 µg/mL, partner 0.625 µg/mL",0.0342
same,fitness,"S. aureus Newman [2]; first compound 75 µg/mL, partner 1.25 µg/mL",0.0412
same,fitness,"S. aureus Newman [2]; first compound 75 µg/mL, partner 2.5 µg/mL",0.0372
same,Bliss interaction score,B. subtilis 168 [3],-0.1
same,Bliss interaction score,S. aureus DSM 20231,-0.0827
same,Bliss interaction score,S. aureus Newman [4],-0.1
same,Bliss interaction score,S. pneumoniae D39V,-0.0668
